Patent US9174974B2, “Macrocyclic factor VIIa inhibitors” (BRISTOL-MYERS SQUIBB COMPANY, priority 2012, dated 2015)
pKi: −log10 of the molar value.

Experiments:
human FVIIa = human FVIIa (Homo sapiens (Human), UniProt P08709); assay: FVIIa Ki (37° C.), FVIIa-Xase assay; assay type: biochemical; details: for Ki: read-out: FVIIa Ki, nM 37° C.; for Ki(HK1)/Ki(FVIIa): selectivity ratio, tissue kallikrein (HK1) vs FVIIa
tissue kallikrein (HK1) = tissue kallikrein (HK1) (Homo sapiens (Human), UniProt P06870); assay: Tissue kallikrein-1 (HK1) Ki, fluorogenic substrate assay; assay type: biochemical; details: 37° C.
Chain of tissue kallikrein (HK1) (P06870 25-262): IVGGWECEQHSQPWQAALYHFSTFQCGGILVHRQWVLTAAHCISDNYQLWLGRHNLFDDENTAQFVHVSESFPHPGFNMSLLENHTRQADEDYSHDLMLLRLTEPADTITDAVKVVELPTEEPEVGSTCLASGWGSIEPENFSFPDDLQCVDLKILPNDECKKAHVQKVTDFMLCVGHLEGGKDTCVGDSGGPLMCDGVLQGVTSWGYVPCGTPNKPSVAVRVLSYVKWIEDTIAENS

Chain of human FVIIa (P08709 61-212): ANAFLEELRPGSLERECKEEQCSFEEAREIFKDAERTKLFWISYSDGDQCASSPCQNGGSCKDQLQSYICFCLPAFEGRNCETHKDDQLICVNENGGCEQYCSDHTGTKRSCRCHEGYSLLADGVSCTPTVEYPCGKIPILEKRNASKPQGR
Chain of human FVIIa (P08709 213-466): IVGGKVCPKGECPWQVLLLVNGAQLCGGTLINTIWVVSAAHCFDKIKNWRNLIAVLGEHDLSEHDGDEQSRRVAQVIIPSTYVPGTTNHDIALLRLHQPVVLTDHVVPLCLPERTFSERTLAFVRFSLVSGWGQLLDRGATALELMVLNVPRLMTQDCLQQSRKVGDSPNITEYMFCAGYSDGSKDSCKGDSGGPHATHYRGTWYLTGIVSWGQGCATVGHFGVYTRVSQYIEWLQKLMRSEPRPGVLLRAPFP
Chain of human FVIIa (P13726 33-295 partner): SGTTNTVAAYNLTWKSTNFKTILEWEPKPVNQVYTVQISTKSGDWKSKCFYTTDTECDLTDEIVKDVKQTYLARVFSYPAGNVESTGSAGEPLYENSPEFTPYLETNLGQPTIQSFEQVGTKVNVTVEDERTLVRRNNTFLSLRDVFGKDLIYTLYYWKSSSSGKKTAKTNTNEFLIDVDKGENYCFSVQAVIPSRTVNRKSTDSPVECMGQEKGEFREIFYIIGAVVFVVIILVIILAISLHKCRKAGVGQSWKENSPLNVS

SMILES | Ki (human FVIIa) [nM] | Ki(HK1)/Ki(FVIIa) (human FVIIa) | pKi (tissue kallikrein (HK1))
Cc1cc2ccc1[C@@H](C)COC(=O)Nc1cc(F)c(OC[C@H](O)C3CC3)c(c1)CN(C)C(=O)[C@@H]2Nc1ccc2c(N)nccc2c1.O=C(O)C(F)(F)F (stereo in doubt) [Example 21, (2R,15R)-2-[(1-Aminoisoquinolin-6-yl)amino]-7-[(2S)-2-cyclopropyl-2-hydroxyethoxy]-8-fluoro-4,15,20-trimethyl-13-oxa-4,11-diazatricyclo[14.2.2.16,10]henicosa-1(18),6,8,10 (21),16,19-hexaene-3,12-dione; trifluoroacetic acid] | 0.34 | 1618 | 6.26
Cc1cc2ccc1[C@@H](C)COC(=O)Nc1ccc(S(=O)(=O)C(C)(C)C)c(c1)CN(C)C(=O)[C@@H]2Nc1ccc2c(N)nccc2c1.O=C(O)C(F)(F)F (stereo in doubt) [Example 22, (15R)-2-[(1-Aminoisoquinolin-6-yl)amino]-4,15,17-trimethyl-7-(2-methylpropane-2-sulfonyl)-13-oxa-4,11-diazatricyclo[14.2.2.1^6,10]henicosa-1(18),6,8,10 (21),16,19-hexaene-3,12-dione; trifluoroacetic acid] | 0.31 | 2516 | 6.11
CC(C)S(=O)(=O)c1ccc2cc1CN(C)C(=O)[C@H](Nc1cc(F)c3c(N)nccc3c1)c1ccc(cc1)CCOC(=O)N2 [Comparator 1, reference compound] | 38 | 87 | 5.48
CCS(=O)(=O)c1ccc2cc1CNC(=O)[C@H](Nc1ccc3c(N)nccc3c1)c1ccc(cc1)CCOC(=O)N2 [Comparator 2, reference compound] | 11 | 10 | 6.96
CCS(=O)(=O)c1ccc2cc1CNC(=O)[C@H](Nc1ccc3c(N)nccc3c1)c1cc(C)c(c(C)c1)CCOC(=O)N2 [Comparator 3, reference compound] | 1.1 | 64 | 7.15
C[C@H]1COC(=O)Nc2cccc(c2)CNC(=O)C(Nc2ccc3c(N)nccc3c2)c2ccc1cc2 (stereo partly drawn) [Comparator 4, reference compound] | > 140 |  | 
Cc1cc2cc(C)c1CC(O)CC(=O)Nc1ccc(S(=O)(=O)C3CC3)c(c1)CN(C)C(=O)[C@@H]2Nc1ccc2c(N)ncc(F)c2c1.O=C(O)C(F)(F)F (stereo partly drawn) [Example 2, (2R)-2-[(1-Amino-4-fluoroisoquinolin-6-yl)amino]-7-(cyclopropanesulfonyl)-14-hydroxy-4,17,20-trimethyl-4,11-diazatricyclo[14.2.2.1^6,10]henicosa-1(18),6,8,10 (21),16,19-hexaene-3,12-dione; trifluoroacetic acid] | 2.3 | 704 | 5.79
CCS(=O)(=O)c1ccc2cc1CN(C)C(=O)[C@H](Nc1ccc3c(N)ncc(F)c3c1)c1ccc(c(C)c1)[C@@H](C)COC(=O)N2.O=C(O)C(F)(F)F [Example 3, (2R,15R)-2-[(1-Amino-4-fluoroisoquinolin-6-yl)amino]-7-(ethanesulfonyl)-4,15,17-trimethyl-13-oxa-4,11-diazatricyclo[14.2.2.1^6,10]henicosa-1(18),6,8,10 (21),16,19-hexaene-3,12-dione; trifluoroacetic acid] | 2.3 | 117 | 6.57
CCN(Cc1nccs1)C(=O)c1ccc2cc1CN(C)C(=O)[C@H](Nc1ccc3c(N)nccc3c1)c1cc(C)c(c(C)c1)C(F)(F)COC(=O)N2.O=C(O)C(F)(F)F [Example 4, (2R)-2-[(1-Aminoisoquinolin-6-yl)amino]-N-ethyl-15,15-difluoro-4,17,20-trimethyl-3,12-dioxo-N-(1,3-thiazol-2-ylmethyl)-13-oxa-4,11-diazatricyclo[14.2.2.1^6,10]henicosa-1(18),6,8,10 (21),16,19-hexaene-7-carboxamide; trifluoroacetic acid] |  |  | 6.52
Cc1cc2cc(C)c1C(F)(F)COC(=O)Nc1ccc(S(=O)(=O)C3CC3)c(c1)CN(C)C(=O)[C@@H]2Nc1ccc2c(N)nccc2c1.O=C(O)C(F)(F)F [Example 5, (2R)-2-[(1-Aminoisoquinolin-6-yl)amino]-7-(cyclopropanesulfonyl)-15,15-difluoro-4,17,20-trimethyl-13-oxa-4,11-diazatricyclo[14.2.2.1^6,10]henicosa-1(18),6,8,10 (21),16,19-hexaene-3,12-dione; trifluoroacetic acid] | 2 | 145 | 6.54
COC[C@H](C)S(=O)(=O)c1ccc2cc1CN(C)C(=O)[C@H](Nc1ccc3c(N)ncc(F)c3c1)c1ccc(c(C)c1)[C@@H](C)COC(=O)N2.O=C(O)C(F)(F)F [Example 6, (2R,15R)-2-[(1-Amino-4-fluoroisoquinolin-6-yl)amino]-7-[(2S)-1-methoxypropane-2-sulfonyl]-4,15,17-trimethyl-13-oxa-4,11-diazatricyclo[14.2.2.1^6,10]henicosa-1(18),6,8,10 (21),16,19-hexaene-3,12-dione; trifluoroacetic acid] | 1.8 | 306 | 6.26
Cc1cc2ccc1[C@@H](C)COC(=O)Nc1ccc(C(=O)N3CCC3)c(c1)CN(C)C(=O)[C@@H]2Nc1ccc2c(N)nccc2c1.O=C(O)C(F)(F)F [Example 7, (2R,15R)-2-[(1-Aminoisoquinolin-6-yl)amino]-7-(azetidine-1-carbonyl)-4,15,17-trimethyl-13-oxa-4,11-diazatricyclo[14.2.2.16,10]henicosa-1(18),6,8,10 (21),16,19-hexaene-3,12-dione; trifluoroacetic acid] | 1.2 | 525 | 6.20
Cc1cc2ccc1[C@@H](C)COC(=O)Nc1ccc(S(=O)(=O)C(C)C)c(c1)CN(C)C(=O)[C@@H]2Nc1ccc2c(N)ncc(F)c2c1.O=C(O)C(F)(F)F [Example 8, (2R,15R)-2-[(1-Amino-4-fluoroisoquinolin-6-yl)amino]-4,15,17-trimethyl-7-(propane-2-sulfonyl)-13-oxa-4,11-diazatricyclo[14.2.2.1^6,10]henicosa-1(18),6,8,10 (21),16,19-hexaene-3,12-dione; trifluoroacetic acid] | 1.2 | 583 | 6.15
Cc1cc2ccc1[C@@H](C)COC(=O)Nc1ccc([C@@H](CC(F)F)C(=O)O)c(c1)CN(C)C(=O)[C@@H]2Nc1ccc2c(N)ncc(F)c2c1.O=C(O)C(F)(F)F [Example 10, (2R)-2-[(2R,15R)-2-[(1-Amino-4-fluoroisoquinolin-6-yl)amino]-4,15,17-trimethyl-3,12-dioxo-13-oxa-4,11-diazatricyclo[14.2.2.1^6,10]henicosa-1(18),6,8,10 (21),16,19-hexaen-7-yl]-4,4-difluorobutanoic acid; trifluoroacetic acid] | 0.9 | 356 | 6.49
Cc1cc2ccc1[C@@H](C)COC(=O)Nc1cc(F)c(S(=O)(=O)C3CC3)c(c1)CN(C)C(=O)[C@@H]2Nc1cc(F)c2c(N)nccc2c1.O=C(O)C(F)(F)F [Example 11, (2R,15R)-2-[(1-Amino-8-fluoroisoquinolin-6-yl)amino]-7-(cyclopropanesulfonyl)-8-fluoro-4,15,17-trimethyl-13-oxa-4,11-diazatricyclo[14.2.2.1^6,10]henicosa-1(18),6,8,10 (21),16,19-hexaene-3,12-dione; trifluoroacetic acid] | 0.66 | 145 | 7.02
CC[C@@H](C(=O)O)c1ccc2cc1CN(C)C(=O)[C@H](Nc1ccc3c(N)ncc(F)c3c1)c1ccc(c(C)c1)[C@@H](C)COC(=O)N2.O=C(O)C(F)(F)F [Example 13, (2R)-2-[(2R,15R)-2-[(1-Amino-4-fluoroisoquinolin-6-yl)amino]-4,15,17-trimethyl-3,12-dioxo-13-oxa-4,11-diazatricyclo[14.2.2.1^6,10]henicosa-1(18),6,8,10 (21),16,19-hexaen-7-yl]butanoic acid; trifluoroacetic acid] | 0.61 | 623 | 6.42
Cc1cc2ccc1[C@@H](C(F)F)COC(=O)Nc1ccc(S(=O)(=O)C3CC3)c(c1)CN(C)C(=O)[C@@H]2Nc1ccc2c(N)nccc2c1.O=C(O)C(F)(F)F [Example 16, (2R,15R)-2-[(1-Aminoisoquinolin-6-yl)amino]-7-(cyclopropanesulfonyl)-15-(difluoromethyl)-4,17-dimethyl-13-oxa-4,11-diazatricyclo[14.2.2.1^6,10]henicosa-1(18),6,8,10 (21),16,19-hexaene-3,12-dione; trifluoroacetic acid] | 0.5 | 360 | 6.74
Cc1cc2ccc1[C@@H](C)COC(=O)Nc1cc(F)c(OC[C@H](C)O)c(c1)CN(C)C(=O)[C@@H]2Nc1ccc2c(N)nccc2c1.O=C(O)C(F)(F)F [Example 17, (2R,15R)-2-[(1-Aminoisoquinolin-6-yl)amino]-8-fluoro-7-[(2S)-2-hydroxypropoxy]-4,15,20-trimethyl-13-oxa-4,11-diazatricyclo[14.2.2.1^6,10]henicosa-1(18),6,8,10 (21),16,19-hexaene-3,12-dione; trifluoroacetic acid] | 0.46 | 870 | 6.40
Cc1cc2ccc1[C@@H](CF)COC(=O)Nc1ccc(S(=O)(=O)C3CC3)c(c1)CN(C)C(=O)[C@@H]2Nc1ccc2c(N)nccc2c1.O=C(O)C(F)(F)F [Example 24, (2R,15R)-2-[(1-Aminoisoquinolin-6-yl)amino]-7-(cyclopropanesulfonyl)-15-(fluoromethyl)-4,17-dimethyl-13-oxa-4,11-diazatricyclo[14.2.2.1^6,10]henicosa-1(18),6,8,10 (21),16,19-hexaene-3,12-dione; trifluoroacetic acid] |  |  | 6.70
